Results: patent publication US8895568B2, “Compositions comprising substituted pteridines as agrochemicals” (Dow AgroSciences LLC, priority 2009, dated 2014)

Columns and labels:
Format in all cases: in vivo
Cochliobolus sativus = test: Spot Blotch of Wheat (COCHSA), foliar spray, percent disease control; settings: Bipolaris sorokiniana, foliar; read-out: COCHSA percent control
[1] = system: Pseudoperonospora cubensis; test: Cucumber Downy Mildew (PSPECU), foliar spray, percent disease control; settings: foliar, read-out: PSPECU percent control
Colletotricum lagenarium = test: Cucumber Anthracnose (COLLLA), foliar spray, percent disease control; settings: foliar
[2] = system: DROSME, AEDSAE, LAPHEG, or HELIVI; test: Insecticidal activity, active if any of DROSME, AEDSAE, LAPHEG or HELIVI was controlled at 80% or more; settings: read-out: >80% mortality on any insect species @ 4000 ppm

SMILES | pest or weed control at 200 µg/mL (Cochliobolus sativus) [%] | pest or weed control at 200 µg/mL [1] [%] | pest or weed control at 200 µg/mL (Colletotricum lagenarium) [%] | pest or weed control at 4000 ppm [2] [%]
COc1cc(C(F)(F)F)cc(Oc2ccc(CCNc3ncnc4nc(C)c(C)nc34)cc2)n1 [Compound 198] | 0 to 49 | 0 to 49 | 0 to 49 | > 80
Fc1cc(C(F)(F)F)ccc1Oc1ccc(CCNc2ncnc3nccnc23)cc1 [Compound 113] | 0 to 49 | 80 to 100 | 0 to 49 | > 80
Ic1ccnc(Oc2ccc(CCNc3ncnc4nccnc34)cc2)c1 [Compound 36, N-(2-{4-[(4-iodopyridin-2-yl)oxy]phenyl}ethyl)pteridin-4-amine] | 50 to 79 | 80 to 100 | 50 to 79 | > 80
COc1cc(CCNc2ncnc3nccnc23)ccc1Oc1ccc(C(F)(F)F)cn1 [Compound 49] | 50 to 79 | 80 to 100 | 50 to 79 | > 80
CC(Nc1ncnc2nccnc12)c1ccc(Oc2ccc(C(F)(F)F)cn2)cc1 (centres unmarked) [Compound 67] | 0 to 49 | 80 to 100 | 0 to 49 | > 80
O=C(c1ccc(Oc2ccc(CCNc3ncnc4nccnc34)cc2)nc1)C1CC1 [Compound 30] | 0 to 49 | 50 to 79 | 0 to 49 | > 80
Cc1cnc2ncnc(NCCc3ccc(Oc4ncc(C(F)(F)F)cc4F)cc3)c2n1 [Compound 53] | 0 to 49 | 80 to 100 | 80 to 100 | > 80
CC(F)(F)c1ccnc(Oc2ccc(CCNc3ncnc4nccnc34)cc2)c1 [Compound 44] | 0 to 49 | 80 to 100 | 50 to 79 | > 80
FC(F)(F)COc1ccnc(Oc2ccc(CCNc3ncnc4nccnc34)cc2)c1 [Compound 96, Pteridin-4-yl-(2-{4-[4-(2,2,2-trifluoroethoxy)-pyridin-2-yloxy]-phenyl}-ethyl)-amine] | 0 to 49 | 80 to 100 | 0 to 49 | > 80
FC(F)(F)c1ccnc(Oc2ccc(CCNc3ncnc4nccnc34)cc2Cl)c1 [Compound 187] | 0 to 49 | 80 to 100 | 80 to 100 | > 80
FC(F)(F)c1nc(Oc2ccc(CCNc3ncnc4nccnc34)cc2)sc1Cl [Compound 128] | 0 to 49 | 80 to 100 | 0 to 49 | > 80
CCOc1cc(CCNc2ncnc3nccnc23)ccc1Oc1cc(C(F)(F)F)ccn1 [Compound 153] | 0 to 49 | 80 to 100 | 0 to 49 | > 80
Fc1cc(C(F)(F)F)cnc1Oc1ccc(CCNc2ncnc3ncc(Cl)nc23)cc1 [Compound 118] | 0 to 49 | 0 to 49 | 0 to 49 | > 80
Cc1cc(CCNc2ncnc3nccnc23)ccc1Oc1ccc(C(F)(F)F)cn1 [Compound 141] | 0 to 49 | 80 to 100 | 50 to 79 | > 80
Fc1cc(Oc2cc(C(F)(F)F)ccn2)ccc1CCNc1ncnc2nccnc12 [Compound 103] | 0 to 49 | 80 to 100 | 0 to 49 | > 80
Cc1cnc2ncnc(NCCc3ccc(Oc4cncc(Cl)c4C#N)cc3)c2n1 [Compound 120] | 0 to 49 | 0 to 49 | 0 to 49 | > 80
Cc1cnc2ncnc(NCCc3ccc(Oc4ccc(C(F)(F)F)cn4)cc3)c2n1 [Compound 41] | 0 to 49 | 80 to 100 | 50 to 79 | > 80
Cc1cc(CCNc2ncnc3nccnc23)ccc1Oc1c(F)cnc(C(F)(F)F)c1F [Compound 166] | 0 to 49 | 80 to 100 | 50 to 79 | > 80
Cc1ccc(Oc2ccc(CCNc3ncnc4nccnc34)cc2)cc1 [Compound 136] | 0 to 49 | 80 to 100 | 50 to 79 | > 80
CC(=O)Oc1cc(CCNc2ncnc3nccnc23)ccc1Oc1cc(C(F)(F)F)ccn1 [Compound 190, Acetic acid 5-[2-(pteridin-4-ylamino)-ethyl]-2-(4-trifluoromethylpyridin-2-yloxy)-phenyl ester] | 0 to 49 | 0 to 49 | 0 to 49 | > 80
FC(F)(F)c1ccc(Oc2ccc(CCNc3ncnc4nccnc34)cc2)nc1 [Compound 5] | 0 to 49 | 80 to 100 | 80 to 100 | > 80
N#Cc1ccc(Oc2ccc(CCNc3ncnc4nccnc34)c(F)c2)nc1 [Compound 104] | 0 to 49 | 80 to 100 | 0 to 49 | > 80
CC(Nc1ncnc2nccnc12)c1ccc(Oc2cc(C(F)(F)F)ccn2)cc1 (centres unmarked) [Compound 82] | 0 to 49 | 80 to 100 | 0 to 49 | > 80
CC(C)(C)OC(=O)c1ccc(Oc2ccc(CCNc3ncnc4nccnc34)cc2)nc1 [Compound 165] | 0 to 49 | 80 to 100 | 0 to 49 | > 80
Cc1cc(CCNc2ncnc3nccnc23)ccc1Oc1cc(C(C)(F)F)ccn1 [Compound 169] | 0 to 49 | 80 to 100 | 50 to 79 | > 80
Cc1nnsc1Oc1ccc(CCNc2ncnc3nccnc23)cc1 [Compound 59] | 0 to 49 | 0 to 49 | 0 to 49 | > 80
FC(F)(F)COc1ccnc(Oc2ccc(CCNc3ncnc4nccnc34)cc2)n1 [Compound 25] | 0 to 49 | 80 to 100 | 0 to 49 | > 80
FC(F)(F)c1ccnc(Oc2ccc(CCNc3ncnc4nccnc34)cc2)c1 [Compound 2, pteridin-4-yl-{2-[4-(4-trifluoromethylpyridin-2-yloxy)-phenyl]-ethyl}-amine] | 50 to 79 | 80 to 100 | 80 to 100 | > 80
Cc1cccc(Oc2ccc(CCNc3ncnc4nccnc34)cc2)n1 [Compound 39] | 0 to 49 | 80 to 100 | 0 to 49 | > 80
